Experimental data: US7691858B2, “Kinase inhibitors and methods of use thereof” (TargeGen, Inc., priority 2006, dated 2010)

What was measured:
Experiment in all cases: Kinase panel screen
Abl = target: T1, Abl (Mus musculus, UniProt P00520); type: biochemical; conditions: Compound I and ATP 10 μM
T1 construct: purchased Upstate USA or Invitrogen (commercial screening service)

EphA4 = target: T2, EphA4 (Homo sapiens, UniProt P54764); type: biochemical; conditions: Compound I and ATP 10 μM
T2 construct: purchased Upstate USA or Invitrogen (commercial screening service)
T2 sequence (P54764 20-986): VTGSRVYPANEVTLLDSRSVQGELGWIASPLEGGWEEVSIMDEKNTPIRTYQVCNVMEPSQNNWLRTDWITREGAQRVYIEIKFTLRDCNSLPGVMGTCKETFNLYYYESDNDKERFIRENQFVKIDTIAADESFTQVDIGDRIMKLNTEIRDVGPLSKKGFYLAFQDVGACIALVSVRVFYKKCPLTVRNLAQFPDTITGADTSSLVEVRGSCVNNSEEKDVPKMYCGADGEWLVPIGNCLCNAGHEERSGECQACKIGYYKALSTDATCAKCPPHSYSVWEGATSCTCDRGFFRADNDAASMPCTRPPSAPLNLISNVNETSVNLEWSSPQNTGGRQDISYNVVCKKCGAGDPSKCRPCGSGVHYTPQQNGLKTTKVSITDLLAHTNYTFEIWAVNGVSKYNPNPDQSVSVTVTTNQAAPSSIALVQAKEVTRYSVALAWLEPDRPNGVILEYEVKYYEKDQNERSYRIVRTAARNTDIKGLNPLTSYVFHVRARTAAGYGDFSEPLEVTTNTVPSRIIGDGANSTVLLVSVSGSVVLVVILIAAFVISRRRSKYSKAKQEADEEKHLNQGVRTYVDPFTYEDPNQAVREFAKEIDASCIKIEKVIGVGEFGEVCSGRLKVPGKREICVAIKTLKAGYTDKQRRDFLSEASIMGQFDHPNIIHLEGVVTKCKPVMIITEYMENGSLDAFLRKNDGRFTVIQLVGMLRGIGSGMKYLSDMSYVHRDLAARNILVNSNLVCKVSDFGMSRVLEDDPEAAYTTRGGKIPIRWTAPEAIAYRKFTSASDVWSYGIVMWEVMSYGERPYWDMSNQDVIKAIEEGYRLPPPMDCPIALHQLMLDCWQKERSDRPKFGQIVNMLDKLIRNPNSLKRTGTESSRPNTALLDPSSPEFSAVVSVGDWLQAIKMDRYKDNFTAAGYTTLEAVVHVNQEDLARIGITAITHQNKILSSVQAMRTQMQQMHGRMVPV

MAPKAP-K3 = target: T3, MAPKAP-K3 (Homo sapiens, UniProt Q16644); type: biochemical; conditions: Compound I and ATP 10 μM
T3 construct: purchased Upstate USA or Invitrogen (commercial screening service)

EphB2 = target: T4, EphB2 (Homo sapiens, UniProt P29323); type: biochemical; conditions: Compound I and ATP 10 μM
T4 construct: purchased Upstate USA or Invitrogen (commercial screening service)

PKCy = target: T5, PKCy (Homo sapiens, UniProt P05129); type: biochemical; conditions: Compound I and ATP 10 μM
T5 construct: purchased Upstate USA or Invitrogen (commercial screening service)

Akt3 = target: T6, Akt3 (Homo sapiens, UniProt Q9Y243); type: biochemical; conditions: Compound I at 1 μM and ATP at the apparent Km
T6 construct: purchased Upstate USA or Invitrogen (commercial screening service)

MEK2 = target: T7, MEK2 (Homo sapiens, UniProt P36507); type: biochemical; conditions: Compound I at 1 μM and ATP at the apparent Km
T7 construct: purchased Upstate USA or Invitrogen (commercial screening service)

Plk3 = target: T8, Plk3 (Homo sapiens, UniProt Q9H4B4); type: biochemical; conditions: Compound I and ATP 10 μM
T8 construct: purchased Upstate USA or Invitrogen (contract screening service)

AMPK = type: biochemical, rat; conditions: Compound I and ATP 10 μM
FGFR1 = target: T9, FGFR1 (Homo sapiens, UniProt P11362); type: biochemical; conditions: Compound I and ATP 10 μM
T9 construct: purchased Upstate USA or Invitrogen (contract screening service)
T9 sequence (P11362 22-822): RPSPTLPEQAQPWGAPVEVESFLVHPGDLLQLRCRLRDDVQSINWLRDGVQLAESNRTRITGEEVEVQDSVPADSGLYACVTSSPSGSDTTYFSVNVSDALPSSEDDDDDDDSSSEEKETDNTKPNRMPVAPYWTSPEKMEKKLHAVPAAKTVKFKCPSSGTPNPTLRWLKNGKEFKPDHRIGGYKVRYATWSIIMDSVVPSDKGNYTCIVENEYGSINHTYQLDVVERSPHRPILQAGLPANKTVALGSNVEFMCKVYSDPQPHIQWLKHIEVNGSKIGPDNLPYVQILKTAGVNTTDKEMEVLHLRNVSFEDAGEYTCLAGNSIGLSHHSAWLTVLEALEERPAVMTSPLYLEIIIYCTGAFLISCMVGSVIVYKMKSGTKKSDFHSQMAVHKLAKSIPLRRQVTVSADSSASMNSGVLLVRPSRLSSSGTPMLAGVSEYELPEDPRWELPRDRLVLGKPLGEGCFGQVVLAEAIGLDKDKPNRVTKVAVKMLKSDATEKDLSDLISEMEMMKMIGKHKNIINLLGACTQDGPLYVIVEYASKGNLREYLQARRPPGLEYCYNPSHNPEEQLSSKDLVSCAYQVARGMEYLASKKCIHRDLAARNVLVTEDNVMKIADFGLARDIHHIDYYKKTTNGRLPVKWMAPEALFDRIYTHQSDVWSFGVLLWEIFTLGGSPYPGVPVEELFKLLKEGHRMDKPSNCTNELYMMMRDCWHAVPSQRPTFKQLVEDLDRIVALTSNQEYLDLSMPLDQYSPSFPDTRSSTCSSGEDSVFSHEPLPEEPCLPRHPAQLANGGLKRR

MKK4 = MKK4 (Mus musculus, UniProt P47809); type: biochemical; conditions: Compound I and ATP 10 μM
Sequence of MKK4 (P47809 whole entry): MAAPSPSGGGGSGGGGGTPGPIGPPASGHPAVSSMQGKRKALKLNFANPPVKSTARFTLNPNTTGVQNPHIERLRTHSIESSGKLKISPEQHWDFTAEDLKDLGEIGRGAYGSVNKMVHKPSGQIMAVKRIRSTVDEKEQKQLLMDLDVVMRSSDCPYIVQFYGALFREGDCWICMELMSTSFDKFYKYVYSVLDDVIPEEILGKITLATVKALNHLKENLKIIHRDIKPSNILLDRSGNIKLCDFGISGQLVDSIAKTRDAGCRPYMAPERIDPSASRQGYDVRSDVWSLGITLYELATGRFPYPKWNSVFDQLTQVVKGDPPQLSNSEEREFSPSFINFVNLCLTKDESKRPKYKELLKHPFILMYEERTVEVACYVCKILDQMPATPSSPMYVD

FGFR2 = target: T10, FGFR2 (Homo sapiens, UniProt P21802); type: biochemical; conditions: Compound I and ATP 10 μM
T10 construct: purchased Upstate USA or Invitrogen (contract screening service)

MKK6 = MKK6 (Homo sapiens, UniProt P52564); type: biochemical; conditions: Compound I and ATP 10 μM
PRK2 = target: T11, PRK2 (Homo sapiens, UniProt Q16513); type: biochemical; conditions: Compound I and ATP 10 μM
T11 construct: purchased Upstate USA or Invitrogen (contract screening service)
T11 sequence (Q16513 whole entry): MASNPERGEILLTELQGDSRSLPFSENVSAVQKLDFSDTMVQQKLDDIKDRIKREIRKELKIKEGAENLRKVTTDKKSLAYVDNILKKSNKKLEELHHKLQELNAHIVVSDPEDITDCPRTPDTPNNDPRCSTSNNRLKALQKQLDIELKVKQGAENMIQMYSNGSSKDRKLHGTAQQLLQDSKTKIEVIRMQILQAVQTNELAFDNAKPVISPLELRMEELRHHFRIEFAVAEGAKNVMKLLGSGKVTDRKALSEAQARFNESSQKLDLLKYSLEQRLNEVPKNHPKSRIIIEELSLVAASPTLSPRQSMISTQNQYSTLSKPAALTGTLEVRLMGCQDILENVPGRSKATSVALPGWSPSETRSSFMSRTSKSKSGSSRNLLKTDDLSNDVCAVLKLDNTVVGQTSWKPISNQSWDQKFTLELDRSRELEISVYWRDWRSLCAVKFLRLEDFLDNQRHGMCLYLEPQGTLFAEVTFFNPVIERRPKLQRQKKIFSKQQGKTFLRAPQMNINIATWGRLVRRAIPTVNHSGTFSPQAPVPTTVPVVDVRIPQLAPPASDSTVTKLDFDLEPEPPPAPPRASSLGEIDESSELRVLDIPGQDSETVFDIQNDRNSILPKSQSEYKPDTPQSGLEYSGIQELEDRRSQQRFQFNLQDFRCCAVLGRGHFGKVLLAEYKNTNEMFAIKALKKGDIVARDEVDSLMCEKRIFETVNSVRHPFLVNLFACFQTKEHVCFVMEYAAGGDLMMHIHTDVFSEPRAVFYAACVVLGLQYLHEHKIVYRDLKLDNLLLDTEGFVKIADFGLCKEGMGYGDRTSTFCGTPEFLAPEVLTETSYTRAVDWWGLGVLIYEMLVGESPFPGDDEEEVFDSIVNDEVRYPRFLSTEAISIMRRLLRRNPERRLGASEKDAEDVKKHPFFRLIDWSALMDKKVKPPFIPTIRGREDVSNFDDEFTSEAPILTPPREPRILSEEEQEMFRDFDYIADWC

FGFR3 = target: T12, FGFR3 (Homo sapiens, UniProt P22607); type: biochemical; conditions: Compound I and ATP 10 μM
T12 construct: purchased Upstate USA or Invitrogen (contract screening service)

Ret = target: T13, Ret (Homo sapiens, UniProt P07949); type: biochemical; conditions: Compound I and ATP 10 μM
T13 construct: purchased Upstate USA or Invitrogen (contract screening service)

Axl = target: T14, Axl (Homo sapiens, UniProt P30530); type: biochemical; conditions: Compound I and ATP 10 μM
T14 construct: purchased Upstate USA or Invitrogen (contract screening service)

ROCK-I = target: T15, ROCK-I (Homo sapiens, UniProt Q13464); type: biochemical; conditions: Compound I and ATP 10 μM
T15 construct: purchased Upstate USA or Invitrogen (commercial screening service)

MST1 = target: T16, MST1 (Homo sapiens, UniProt Q13043); type: biochemical; conditions: Compound I and ATP 10 μM
T16 construct: purchased Upstate USA or Invitrogen (commercial screening service)
T16 sequence (Q13043 whole entry): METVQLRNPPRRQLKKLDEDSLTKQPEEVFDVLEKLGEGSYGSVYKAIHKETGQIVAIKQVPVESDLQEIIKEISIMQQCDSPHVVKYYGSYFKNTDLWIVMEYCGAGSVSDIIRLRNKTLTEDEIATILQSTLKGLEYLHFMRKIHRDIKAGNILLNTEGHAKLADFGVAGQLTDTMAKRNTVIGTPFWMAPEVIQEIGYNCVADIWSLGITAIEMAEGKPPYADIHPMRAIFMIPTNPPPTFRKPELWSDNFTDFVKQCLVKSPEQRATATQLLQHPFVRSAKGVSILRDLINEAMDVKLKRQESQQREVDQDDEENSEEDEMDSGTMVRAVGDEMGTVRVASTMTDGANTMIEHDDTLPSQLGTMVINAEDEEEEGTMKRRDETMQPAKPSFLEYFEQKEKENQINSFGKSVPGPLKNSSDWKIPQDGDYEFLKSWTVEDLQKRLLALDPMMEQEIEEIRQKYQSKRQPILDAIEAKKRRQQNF

Bmx = target: T17, Bmx (Homo sapiens, UniProt P51813); type: biochemical; conditions: Compound I and ATP 10 μM
T17 construct: purchased Upstate USA or Invitrogen (commercial screening service)

Ron = target: T18, Ron (Homo sapiens, UniProt Q04912); type: biochemical; conditions: Compound I and ATP 10 μM
T18 construct: purchased Upstate USA or Invitrogen (commercial screening service)

Ros = target: T19, Ros (Homo sapiens, UniProt P08922); type: biochemical; conditions: Compound I and ATP 10 μM
T19 construct: purchased Upstate USA or Invitrogen (commercial screening service)

BTK = target: T20, BTK (Homo sapiens, UniProt Q06187); type: biochemical; conditions: Compound I and ATP 10 μM
T20 construct: purchased Upstate USA or Invitrogen (commercial screening service)
T20 sequence (Q06187 whole entry): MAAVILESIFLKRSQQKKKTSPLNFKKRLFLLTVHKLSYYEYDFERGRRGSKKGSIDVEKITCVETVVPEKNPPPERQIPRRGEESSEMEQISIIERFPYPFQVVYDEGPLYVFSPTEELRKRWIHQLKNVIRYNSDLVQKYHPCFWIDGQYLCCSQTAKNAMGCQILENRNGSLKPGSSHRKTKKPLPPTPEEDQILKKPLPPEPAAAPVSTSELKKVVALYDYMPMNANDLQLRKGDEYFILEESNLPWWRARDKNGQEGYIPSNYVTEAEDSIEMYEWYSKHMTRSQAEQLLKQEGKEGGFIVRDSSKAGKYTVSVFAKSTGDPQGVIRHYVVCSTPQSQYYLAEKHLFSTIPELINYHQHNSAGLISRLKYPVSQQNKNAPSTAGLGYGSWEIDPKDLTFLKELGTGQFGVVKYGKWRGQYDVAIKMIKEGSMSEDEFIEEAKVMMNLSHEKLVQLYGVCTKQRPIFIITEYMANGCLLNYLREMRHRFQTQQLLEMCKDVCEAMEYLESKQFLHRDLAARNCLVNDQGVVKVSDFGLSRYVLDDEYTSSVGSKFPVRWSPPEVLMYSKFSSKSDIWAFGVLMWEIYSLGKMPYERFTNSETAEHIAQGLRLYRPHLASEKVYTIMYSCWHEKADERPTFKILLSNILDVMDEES

Rsk3 = target: T21, Rsk3 (Homo sapiens, UniProt Q15349); type: biochemical; conditions: Compound I and ATP 10 μM
T21 construct: purchased Upstate USA or Invitrogen (commercial screening service)
T21 sequence (Q15349 whole entry): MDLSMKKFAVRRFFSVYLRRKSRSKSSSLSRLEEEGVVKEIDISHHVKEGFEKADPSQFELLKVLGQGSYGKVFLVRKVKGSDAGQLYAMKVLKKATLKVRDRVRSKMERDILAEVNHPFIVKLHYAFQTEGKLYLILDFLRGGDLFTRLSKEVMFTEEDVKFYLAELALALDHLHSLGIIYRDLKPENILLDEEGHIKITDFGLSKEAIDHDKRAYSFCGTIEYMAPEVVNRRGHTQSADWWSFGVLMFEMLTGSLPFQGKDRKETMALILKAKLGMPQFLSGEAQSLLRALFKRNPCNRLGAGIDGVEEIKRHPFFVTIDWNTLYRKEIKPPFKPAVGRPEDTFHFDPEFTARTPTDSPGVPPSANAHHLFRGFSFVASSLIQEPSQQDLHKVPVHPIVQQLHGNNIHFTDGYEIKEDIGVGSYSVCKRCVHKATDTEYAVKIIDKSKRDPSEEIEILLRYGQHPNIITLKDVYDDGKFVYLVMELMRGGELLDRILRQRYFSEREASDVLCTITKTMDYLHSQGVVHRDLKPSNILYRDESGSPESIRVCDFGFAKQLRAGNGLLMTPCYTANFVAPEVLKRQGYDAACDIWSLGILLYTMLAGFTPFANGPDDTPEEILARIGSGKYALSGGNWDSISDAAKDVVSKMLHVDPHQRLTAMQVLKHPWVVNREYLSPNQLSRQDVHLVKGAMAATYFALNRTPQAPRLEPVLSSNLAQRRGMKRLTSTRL

CaMKIV = target: T22, CaMKIV (Homo sapiens, UniProt Q16566); type: biochemical; conditions: Compound I and ATP 10 μM
T22 construct: purchased Upstate USA or Invitrogen (commercial screening service)

SAPK2a = target: T23, SAPK2a (Homo sapiens, UniProt Q16539); type: biochemical; conditions: Compound I and ATP 10 μM
T23 construct: purchased Upstate USA or Invitrogen (commercial screening service)

PAR-1Ba = target: T24, PAR-1Ba (Homo sapiens, UniProt Q7KZI7); type: biochemical; conditions: Compound I and ATP 10 μM
T24 construct: purchased Upstate USA or Invitrogen (commercial screening service)

CDK2 = target: T25, CDK2 (Homo sapiens, UniProt P24941); type: biochemical; conditions: Compound I and ATP 10 μM
T25 construct: purchased Upstate USA or Invitrogen (commercial screening service)

IKKa = target: T26, IKKa (Homo sapiens, UniProt O15111); type: biochemical; conditions: Compound I and ATP 10 μM
T26 construct: purchased Upstate USA or Invitrogen (commercial screening service)

SAPK3 = target: T27, SAPK3 (Homo sapiens, UniProt P53778); type: biochemical; conditions: Compound I and ATP 10 μM
T27 construct: purchased Upstate USA or Invitrogen (commercial screening service)

IKKβ = target: T28, IKKβ (Homo sapiens, UniProt O14920); type: biochemical; conditions: Compound I and ATP 10 μM
T28 construct: purchased Upstate USA or Invitrogen (commercial screening service)

PDK1 = target: T29, PDK1 (Homo sapiens, UniProt O15530); type: biochemical; conditions: Compound I and ATP 10 μM
T29 construct: purchased Upstate USA or Invitrogen (commercial screening service)

CDK5 = target: T30, CDK5 (Homo sapiens, UniProt Q00535); type: biochemical; conditions: Compound I and ATP 10 μM
T30 construct: purchased Upstate USA or Invitrogen (commercial screening service)

IRAK4 = target: T31, IRAK4 (Homo sapiens, UniProt Q9NWZ3); type: biochemical; conditions: Compound I and ATP 10 μM
T31 construct: purchased Upstate USA or Invitrogen (contract screening service)

CDK7 = target: T32, CDK7 (Homo sapiens, UniProt P50613); type: biochemical; conditions: Compound I and ATP 10 μM
T32 construct: purchased Upstate USA or Invitrogen (contract screening service)

JNK1a1 = JNK1a1 (Homo sapiens, UniProt P45983); type: biochemical; conditions: Compound I and ATP 10 μM
CHK1 = CHK1 (Homo sapiens, UniProt O14757); type: biochemical; conditions: Compound I and ATP 10 μM
JNK2a2 = JNK2a2 (Homo sapiens, UniProt P45984); type: biochemical; conditions: Compound I and ATP 10 μM
CHK2 = target: T33, CHK2 (Homo sapiens, UniProt O96017); type: biochemical; conditions: Compound I and ATP 10 μM
T33 construct: purchased Upstate USA or Invitrogen (contract screening service)

Lyn = target: T34, Lyn (Mus musculus, UniProt P25911); type: biochemical; conditions: Compound I and ATP 10 μM
T34 construct: purchased Upstate USA or Invitrogen (commercial screening service)

PKC8 = target: T35, PKC8 (Homo sapiens, UniProt Q05655); type: biochemical; conditions: Compound I and ATP 10 μM
T35 construct: purchased Upstate USA or Invitrogen (commercial screening service)

EGFR = EGFR (Homo sapiens, UniProt P00533); type: biochemical; conditions: Compound I and ATP 10 μM
MAPK3 = target: T36, MAPK3 (Homo sapiens, UniProt P27361); type: biochemical; conditions: Compound I at 1 μM and ATP at the apparent Km
T36 construct: purchased Upstate USA or Invitrogen (commercial screening service)

SMILES: Nc1nc(N)c2nc(-c3cccc(O)c3)c(-c3cccc(O)c3)nc2n1 [Compound I, 6,7-bis-(3-hydroxyphenyl)-pteridine-2,4-diamine]
- Percent Control, Abl (m) (Abl): 66%
- Percent Control, EphA4 (EphA4): 119%
- Percent Control, MAPKAP-K3 (MAPKAP-K3): 93%
- Percent Control, EphB2 (EphB2): 56%
- Percent Control, PKCy (PKCy): 75%
- Percent Control, Akt3* (Akt3): 98%
- Percent Control, MEK2* (MEK2): 94%
- Percent Control, Plk3 (Plk3): 97%
- Percent Control, AMPK (r) (AMPK): 88%
- Percent Control, FGFR1 (FGFR1): 75%
- Percent Control, MKK4 (m) (MKK4): 57%
- Percent Control, FGFR2 (FGFR2): 73%
- Percent Control, MKK6 (MKK6): 75%
- Percent Control, PRK2 (PRK2): 83%
- Percent Control, FGFR3 (FGFR3): 66%
- Percent Control, Ret (Ret): 57%
- Percent Control, Axl (Axl): 76%
- Percent Control, ROCK-I (ROCK-I): 93%
- Percent Control, MST1 (MST1): 107%
- Percent Control, Bmx (Bmx): 58%
- Percent Control, Ron (Ron): 71%
- Percent Control, Ros (Ros): 90%
- Percent Control, BTK (BTK): 75%
- Percent Control, Rsk3 (Rsk3): 90%
- Percent Control, CaMKIV (CaMKIV): 87%
- Percent Control, SAPK2a (SAPK2a): 55%
- Percent Control, PAR-1Ba (PAR-1Ba): 93%
- Percent Control, CDK2 (first entry) (CDK2): 67%
- Percent Control, IKKa (IKKa): 100%
- Percent Control, SAPK3 (SAPK3): 98%
- Percent Control, IKKβ (IKKβ): 68%
- Percent Control, PDK1 (PDK1): 90%
- Percent Control, CDK5 (CDK5): 82%
- Percent Control, IRAK4 (IRAK4): 89%
- Percent Control, CDK7 (CDK7): 82%
- Percent Control, JNK1a1 (JNK1a1): 80%
- Percent Control, CHK1 (CHK1): 100%
- Percent Control, JNK2a2 (JNK2a2): 91%
- Percent Control, CHK2 (CHK2): 75%
- Percent Control, Lyn (m) (Lyn): 41%
- Percent Control, PKC8 (PKC8): 89%
- Percent Control, EGFR (EGFR): 99%
- Percent Control, MAPK3* (MAPK3): 99%
